{"source": "patent US20220202743A1", "about": "“PHARMACEUTICAL COMPOSITION FOR PREVENTING OR TREATING DEGENERATIVE BRAIN DISEASE USING AUTOPHAGY ACTIVATION” (VASTHERA CO. LTD., priority 2019, published 2022)", "key": {"HUVECs": {"tested_on": "HUVECs", "assay_type": "cell-based", "description": "In order to visualize the change from neutral autophagosomes to acidic autophagosomes based on the different pH stabilities between mRFP-LC3 and GFP-LC3, LC3 double tagged with mRFP/mCherry-GFP may be used. The fluorescence of mRFP is relatively stable in rososomes, but the fluorescence of GFP is unstable in acidic substances."}, "LC3-II and p62": {"tested_on": "LC3-II and p62", "assay": "Time-dependent immunoblotting of LC3-II and p62 (autophagic flux)", "settings": "immunoblotting 24-72 hours, FIG. 1D", "experimental": "In order to investigate whether the pharmaceutical composition triggers protein turnover and motility of autophagy, various methods available were used to detect autophagic degradation and to monitor autophagic flux. First, LC3-II and p62 levels were measured by a basic time-dependent immunoblotting method as a method of examining how many autophagy substrates were degraded in a lysosome-dependent manner. Since LC3-II and p62 are only selectively degraded during autophagy, the degradation thereof is widely used to evaluate autophagic flux."}, "autophagic vacuoles": {"tested_on": "autophagic vacuoles", "assay": "MDC fluorescence staining of autophagic vacuoles", "assay_type": "cell-based", "settings": "FIG. 1C, versus untreated control"}, "LC3": {"tested_on": "LC3", "assay": "LC3 immunofluorescence staining", "assay_type": "cell-based", "settings": "for LC3 induction in the cytoplasm: LC3 immunofluorescence, FIG. 1A, versus untreated control"}, "AMPK/mTOR/S6K signaling [1]": {"tested_on": "AMPK/mTOR/S6K signaling", "assay": "Immunoblotting of AMPK/mTOR/S6K signaling", "assay_type": "cell-based", "description": "The AMPK-mTOR canonical pathway may be activated by generating insufficient cellular energy, and autophagy is induced."}, "autophagy": {"tested_on": "autophagy", "settings": "Johns Hopkins Drug Library, 2,386 compounds"}, "huntingtin": {"tested_on": "huntingtin", "settings": "mouse model; cited from earlier work"}, "lysosomes": {"tested_on": "lysosomes", "assay": "Lysosomal activity by acridine orange staining", "assay_type": "cell-based", "settings": "FIG. 1G"}, "VDAC1": {"target": "VDAC1 (Homo sapiens, UniProt P21796)", "sequence (P21796 whole entry, species assumed)": "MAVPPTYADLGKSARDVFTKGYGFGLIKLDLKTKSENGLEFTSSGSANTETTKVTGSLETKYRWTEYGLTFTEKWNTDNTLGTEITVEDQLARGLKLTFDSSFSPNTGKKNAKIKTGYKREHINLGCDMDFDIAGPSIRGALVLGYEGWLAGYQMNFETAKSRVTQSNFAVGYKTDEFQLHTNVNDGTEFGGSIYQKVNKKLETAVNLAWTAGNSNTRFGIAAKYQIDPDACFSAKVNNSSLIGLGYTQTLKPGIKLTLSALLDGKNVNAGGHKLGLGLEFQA", "settings": "DARTS, FIG. 3A"}, "Hela cells": {"tested_on": "Hela cells", "assay": "Western blotting of LC3-II in wild-type and TFEB-deficient Hela cells", "assay_type": "cell-based", "settings": "FIG. 2F"}, "EGFP-LC3 puncta [2]": {"tested_on": "EGFP-LC3 puncta", "assay": "EGFP-LC3 puncta with Compound C or upstream autophagy inhibitors", "settings": "together with Compound C, FIG. 2C"}, "AMPK/mTOR/S6K signaling [3]": {"tested_on": "AMPK/mTOR/S6K signaling", "assay": "AMPK/mTOR/S6K signaling in wild-type and VDAC1−/− MEFs", "assay_type": "cell-based, mouse", "settings": "FIG. 3F"}, "tau-BiFC cells": {"tested_on": "tau-BiFC cells", "assay": "tau-BiFC cell assay of tau oligomerization", "assay_type": "cell-based", "settings": "okadaic acid induction, versus DMSO, FIG. 4B", "description": "This effect is because rapamycin attenuates the progression of tauopathy by inducing mTOR-dependent autophagy. […]. In order to visualize and quantify intracellular tau oligomerization, a tau cell line was used in combination with bimolecular fluorescence complementation (BiFC).\nReferring to FIG. 4B, the amino-terminal and carboxyl-terminal portions of the Venus protein are independently fused to htau40 and irradiated with a basal fluorescence signal under normal conditions (first lane). However, when chemical induction of tau high-phosphorylation, such as okadaic acid, which is the same as that occurs as a result of tau oligomerization occurs, a strong fluorescence signal may be generated, and thus yellow fluorescent substances are observed in the samples in which tau protein is present (second lane). […]."}, "HUVEC": {"tested_on": "HUVEC", "assay": "Cell ATP level, ATPlite luminescence assay system", "settings": "treated for 0 to 360 minutes, FIG. 2A"}, "β-actin": {"target": "β-actin (Homo sapiens, UniProt P60709)", "assay": "DARTS analysis, β-actin", "settings": "FIG. 3A", "text": "The changes in the sensitivity to hydrolysis are observed using the DARTS method, and the DARTS method is a label-free detection method for target recognition and verification using changes in the sensitivity of proteins to hydrolysis caused by binding to small molecules."}, "tau and truncated tau": {"tested_on": "tau and truncated tau", "assay": "Tau and truncated tau levels", "assay_type": "cell-based", "settings": "FIG. 4A"}, "LC3-II": {"tested_on": "LC3-II", "assay": "LC3-II level in presence and absence of lysosomal protease inhibitor E64D", "settings": "FIG. 1E"}, "TFEB": {"tested_on": "TFEB", "assay": "EGFP-TFEB nuclear translocation", "assay_type": "cell-based", "settings": "HUVECs with EGFP-TFEB plasmid, 2 to 24 hours, FIG. 2E", "description": "Recently, transcription factor EB (TFEB), a major modulator of autophagy induction and lysosome biogenesis, has been known to communicate with the mTOR signaling pathway."}, "EGFP-LC3 puncta [4]": {"tested_on": "EGFP-LC3 puncta", "assay": "EGFP-LC3 puncta in wild-type and VDAC1−/− MEFs", "assay_type": "cell-based, mouse", "settings": "FIG. 3G"}}, "note": "Like-named read-outs stand apart in the source and are kept apart here."}
{"smiles": "CO/C1=C\\C(C)=C\\[C@@H](C)[C@@H](O)[C@@H](C)C/C(C)=C/C=C/[C@H](OC)[C@@H]([C@@H](C)[C@@H](O)[C@H](C)[C@@]2(O)C[C@@H](O)[C@H](C)[C@@H](C(C)C)O2)OC1=O", "note": "[bafilomycin A]", "values": [{"measurement": "R value", "setting": "HUVECs; GFP and mRFP fluorescence, FIG. 1F", "result": 0.943}, {"measurement": "levels of LC3-II and p62 over time", "setting": "LC3-II and p62", "result": "increase within 24 hours and the high levels of the two types of proteins are maintained during the post-treatment time of 72 hours"}]}
{"smiles": "CNC1CC(c2ccc(Cl)c(Cl)c2)c2ccccc21", "note": "(stereo not drawn) [indatraline]", "values": [{"measurement": "LC3 expression", "setting": "autophagic vacuoles", "result": "express LC3"}, {"measurement": "LC3 induction in the cytoplasm", "setting": "LC3", "result": "induce LC3 in the cytoplasm"}, {"measurement": "ratio of p-AMPK/AMPK (phosphorylation level of AMPK)", "setting": "AMPK/mTOR/S6K signaling [1]; FIG. 2A/2B", "result": "relatively high"}, {"measurement": "autophagy inducing activity in screening", "setting": "autophagy", "result": "having autophagy inducing activity"}]}
{"smiles": "C1COC(NC(C2CC2)C2CC2)=N1", "note": "[rilmenidine]", "values": [{"measurement": "huntingtin aggregates / mutant huntingtin, motility, lifespan", "setting": "huntingtin", "result": "huntingtin aggregates have been successfully removed"}]}
{"smiles": "CN[C@H]1CC[C@@H](c2ccc(Cl)c(Cl)c2)c2ccccc21", "note": "[sertraline]", "values": [{"measurement": "density of acridine orange", "setting": "lysosomes", "result": "significantly increases the density of acridine orange"}, {"measurement": "stability of VDAC1 against pronase", "setting": "VDAC1", "result": "increased stability"}, {"measurement": "conversion to LC3-II", "setting": "Hela cells", "result": "induces conversion to LC3-II in both TFEB+/+ and TFEB−/− HeLa cells"}, {"measurement": "LC3 expression", "setting": "autophagic vacuoles", "result": "express LC3"}, {"measurement": "EGFP-LC3 puncta / induced autophagy on treatment with Compound C", "setting": "EGFP-LC3 puncta [2]", "result": "remarkably decrease"}, {"measurement": "induced amount of LC3 in the cytoplasm", "setting": "LC3; 0.1 μM, 2 μM or 5 μM, FIG. 1B", "result": "LC3 is induced in the cytoplasm in proportion to the amount of sertraline administered"}, {"measurement": "LC3 induction in the cytoplasm", "setting": "LC3", "result": "induce LC3 in the cytoplasm similar to the case of being treated with indatraline"}, {"measurement": "AMPK/mTOR/S6K signaling in MEFs without VDAC1", "setting": "AMPK/mTOR/S6K signaling [3]; VDAC1−/− MEFs", "result": "does not modulate AMPK/mTOR/S6K signaling"}, {"measurement": "AMPK/mTOR/S6K signaling in wild-type MEFs", "setting": "AMPK/mTOR/S6K signaling [3]; WT MEFs", "result": "significantly activates AMPK and inhibits mTOR/S6K phosphorylation"}, {"measurement": "tau aggregates", "setting": "tau-BiFC cells", "result": "significantly fewer tau aggregates than those in the cells treated with DMSO"}, {"measurement": "intracellular ATP level", "setting": "HUVEC", "result": "decreases in proportion to the time"}, {"measurement": "stability of β-actin against pronase", "setting": "β-actin", "result": "degraded by pronase"}, {"measurement": "R value", "setting": "HUVECs", "result": 0.517}, {"measurement": "phosphorylation of S6K", "setting": "AMPK/mTOR/S6K signaling [1]; FIG. 2B", "result": "decreasing the phosphorylation level of mTOR and its downstream S6K"}, {"measurement": "tau and truncated tau", "setting": "tau and truncated tau", "result": "significantly decreased"}, {"measurement": "LC3-II level with E64D versus without E64D", "setting": "LC3-II", "result": "further increases"}, {"measurement": "nuclear translocation of TFEB", "setting": "TFEB", "result": "not detected"}, {"measurement": "EGFP-LC3 puncta, MEFs without VDAC versus wild-type MEFs", "setting": "EGFP-LC3 puncta [4]", "result": "significantly decrease"}, {"measurement": "levels of LC3-II and p62 over time", "setting": "LC3-II and p62", "result": "increase rapidly for 24 hours, peak at the 48th hour, and then decrease from the 72th hour"}]}
{"smiles": "OC[C@H]1O[C@H](O[C@H]2O[C@H](CO)[C@@H](O)[C@H](O)[C@H]2O)[C@H](O)[C@@H](O)[C@@H]1O", "note": "[trehalose]", "values": [{"measurement": "huntingtin aggregates / mutant huntingtin, motility, lifespan", "setting": "huntingtin", "result": "mutant huntingtin, motility, and lifespan in the brain of a mouse model have been improved"}]}
